Measured values: US10087215B2, “Stabilized SOS1 peptides” (DANA-FARBER CANCER INSTITUTE, INC., priority 2013, dated 2018)
Bridges are numbered along the chain shown (N, C = ends). Where no end group is shown, it is not given here. [ ]: non-standard residue; d: D form. The star is where a group is joined. guanine PNA monomer = guanine peptide-nucleic acid (PNA) monomer, attached to a lysine side chain, NCCN(CC(=O)*)C(=O)Cn1cnc2c(=O)[nH]c(N)nc21; G‑GMONO = glycine-G PNA monomer on lysine; S5 = C=CCCC[C@](C)(N)C(=O)O

Assays:
[1] = target: T1, KRAS wild type (Homo sapiens, UniProt P01116); experiment: Fluorescence polarization binding assay, wild-type KRAS
Protocol: The affinity of the various peptides is detailed in FIG. 5.
Expression was induced by 1 mM IPTG for 4 hours at 30° C. Collected bacterial pellets were resuspended in lysis buffer (20 mM Tris, 250 mM NaCl, pH 7.6), lysed by microfluidization (Microfluidics M-110L), and centrifuged at 45,000 rpm for 1 h at 4° C. (Beckman L-90K). […] Concentrated eluates were subjected to size exclusion chromatography and the corresponding monomeric peaks were collected. Protein concentration was determined by Bradford assay (BioRad) and UV absorbance measurements.
FP assays were performed as previously described. Briefly, FITC-SAH-SOS peptides (e.g. 15 nM) were incubated with the indicated serial dilution of KRAS wild-type or mutant protein in binding buffer (50 mM Tris, 100 mM NaCl, pH 8.0) until equilibrium was reached. FP was measured using a SpectraMax M5 microplate reader (Molecular Devices). Dissociation constants (KD) were calculated by nonlinear regression analysis of dose-response curves using Prism software (GraphPad). Competition FP assays were performed by using K-RAS proteins (e.g. 250 nM), FITC-SAH-SOS peptides (e.g. 15 nM), and for competition assays, a serial dilution of N-terminal acetylated SAH-SOS peptides.

[2] = target: KRAS and SOS1 protein (Homo sapiens, UniProt P01116); experiment: Disruption of the association between KRAS and SOS1 protein in vitro; type: biochemical
[3] = target: T1, KRAS wild type; experiment: mant-GTP loading of KRAS, wild type; type: biochemical
Excerpt: (§1) The negative control SAH-SOS B2 peptide had no effect (FIG. 11A-D).

[4] = target: KRAS G12D (Homo sapiens, UniProt P01116, G12D); experiment: mant-GTP loading of KRAS, G12D; type: biochemical; conditions: for inhibition of mant-GTP loading: KRAS G12D oncogenic variant; for inhibition of nucleotide (mant-GTP) loading of KRAS: KRAS G12D per FIG. 20 legend
Excerpt: as §1
Fluorescent GTP analog, mant-GTP, was used to assess the GTP loading propensity of KRAS protein.

[5] = test system: Panc 10.05 cells; conditions: confocal microscopy and lysate fluorescence scan
Protocol: Microscopy was performed 4 hours after dosing cells with the corresponding FITC-conjugated peptides. Complimentary assays to evaluate cell penetrance, including confocal microscopy of treated pancreatic cancer cell lines such as Panc 10.05 (FIG. 12B) and fluorescence scan of lysates from SAH-SOS peptide-treated Panc 10.05 cells (FIG. 12C), were also employed.

[6] = target: wildtype KRAS (Homo sapiens, UniProt P01116); experiment: Nucleotide (GTP) exchange assay with mant-GTP; type: biochemical; conditions: mant-GTP loaded KRAS, excess unlabeled GTP (10x)
Protocol: KRAS was loaded with equimolar mant-GTP (a fluorescent GTP analog), and excess unlabeled GTP (10×) is then added to the reaction mixture. The observed decrease in fluorescence reflects the GTP turnover activity at the KRAS active site. SAH-SOS peptides reduce the GTP turnover activity, as reflected by a shift of the curves from the no peptide negative control toward the inhibited exchange (2 mM MgCl2) positive control (FIG. 10).
Nucleotide exchange assays were performed as an association-dissociation experiment in which mant-GTP first associates with K-Ras followed by a dissociation step in which excess unlabeled GTP outcompetes mant-GTP, thus decreasing the fluorescence, as previously described^5. A kinetic readout of fluorescence, corresponding to the dissociation step, was recorded on a Tecan X1000 fluorescence spectrometer (excitation 360 nm, emission 440 nm). The rate of nucleotide exchange was determined by fitting a single exponential function to the dissociation phase readout from the experiment (Prism software, GraphPad). Reactions were performed with the indicated amounts of SAH-SOS peptides in buffer containing 25 mM Tris (pH 7.5), 50 mM NaCl, 1 mM DTT with 2 μM wildtype KRAS, 2 μM mantGTP and 200 μM unlabeled GTP. 2 mM MgCl2 was added as a […] to inhibit mantGTP release.

[7] = test system: HeLa (cervical cancer, WT KRAS); experiment: Cell viability, CellTiter-Glo, HeLa; type: cell-based; conditions: 24 hours
Protocol: (§2) The indicated cell lines (10^4/well) were plated overnight (96-well format) in high-glucose DMEM media supplemented with 10% FBS, antibiotics and L-Glutamine. Media was aspirated, and SAH-SOS peptides added at the indicated concentrations in serum-free DMEM. Cell viability was measured at 24 hours using the CellTiter-Glo assay (Invitrogen). The plotted data represent percent viability as normalized to untreated controls.

[8] = test system: HCT116 (colorectal cancer, KRAS G13D); experiment: Cell viability, CellTiter-Glo, HCT116; type: cell-based; conditions: HCT116, 24 hours
Protocol: SAH-SOSB2, which contains a staple position that interferes with the KRAS binding interface, served as a negative control for this experiment. Dose-dependent cytotoxic activity of guanine peptide-nucleic acid derivatives of SAH-SOSC2 was also observed in a series of pancreatic and lung cancer subtypes (FIG. 22).
as §2

[9] = test system: A549 (lung adenocarcinoma, KRAS G12S); experiment: Cell viability, CellTiter-Glo, A549; type: cell-based; conditions: A549, 24 hours
Protocol: as §2

[10] = test system: lung, pancreatic, colon, and cervical cancer cell lines; experiment: Susceptibility of a diversity of cancer cell lines; type: cell-based
Protocol: (§3) We tested a diversity of cancer cells lines to evaluate their susceptibility to SAH-SOS peptide treatments. […] After 4 h incubation with the indicated peptides, HeLa (FIG. 15A) or Panc 10.05 (FIG. 15B) cells were treated with […] (EGF), an upstream KRAS activator, and, lysates were prepared, subjected to electrophoresis, and western blotted with the indicated phospho-specific antibodies. Cells treated with or without EGF, in the absence of added peptide, served as positive and negative controls, respectively.
as §2

[11] = test system: phospho-MEK1/2, phospho-ERK1/2, phospho-Akt, phospho-S6K, and phospho-myc in HeLa or Panc 10.05 cells; experiment: Phospho-western blotting of downstream KRAS targets after EGF; type: cell-based; conditions: 4 h peptide incubation, then Epidermal Growth Factor (EGF)
Protocol: as §3
HeLa cells (10^5/well) were plated overnight (12-well format) in high-glucose DMEM media supplemented with 10% FBS, antibiotics and L-Glutamine. After 24 hours, cells were treated with the indicated amounts of SAH-SOS peptides for 4 hours in serum-free DMEM, followed by the addition of EGF (50 ng/ml) ([…], Cell Signaling) for an additional 15 minute incubation. The cells were then lysed in buffer containing 0.5% NP-40, 50 mM Tris (pH 7.4), 150 mM NaCl, complete protease inhibitors and PhosphoOne phosphatase inhibitors (Roche), and collected lysates subjected to SDS-PAGE following by western blotting with anti-phospho-Erk1/2, phospho-S6K, phospho-myc (Cell Signaling), and actin (Sigma) antibodies.

[12] = test system: Myc promoter luciferase reporter in HeLa cells; experiment: Myc promoter luciferase reporter assay; type: cell-based; conditions: EGF stimulation, normalized to cell viability
Protocol: HeLa cells transfected with a reporter construct containing luciferase under the control of the Myc promoter was treated with EGF and the indicated concentrations of SAH-SOS peptides (FIG. 16). The luciferase readout was normalized to cell viability and plotted as percent luciferase expression compared to baseline. […] No EGF treatment served as a negative control for the experiment.
HeLa cells (10^4/well) were plated overnight (96-well format) in high-glucose DMEM media supplemented with 10% FBS, antibiotics and L-Glutamine. After 24 hour incubation, cells were transfected with pBV-Luc/Del-6 plasmid that includes a luciferase reporter under c-myc promoter, using Lipofectamine 2000 (Invitrogen) according to the manufacturer's protocol. Twenty-four hours after transfection, the cells were treated with the indicated amounts of SAH-SOS peptides for 4 hours in serum-free media, and then. EGF (50 ng/ml) was added for an additional 4 hour incubation. CellTiter-Glo and luciferase (Invitrogen) kits were used to quantify cell viability and luciferase expression, respectively. Viability data was used to normalize luciferase expression.

[13] = test system: mouse embryonic fibroblasts; conditions: 0.5 μM FITC-conjugated peptide, 4 hours
Protocol: Negative controls include DMSO and an unmodified/unstructured peptide of the BIM BH3 domain. […] Microscopy was performed 4 hours after dosing cells with the corresponding FITC-conjugated peptides.
Briefly, wild-type MEFs were treated with 0.5 μM SAH-SOS peptide or the equivalent amount of control peptides (e.g. BIM BH3, BIM SAHBA) for 4 hours in serum-free DMEM, and then stained with Hoechst dye and CellMask Orange (Invitrogen) for 10 min. The media was aspirated, and cells fixed with 4% paraformaldehyde for 10 min, washed 3× with PBS and imaged using ImageXpress Microscopy (high-throughput epifluorescence microscope, Molecular Devices). The data were analyzed and quantified with MetaXpress software.

Row | Compound | binding to KRAS, in words [1] | disruption of KRAS-SOS1 association [2] | inhibition of mant-GTP loading [3] | inhibition of mant-GTP loading [4] | cellular uptake [5] | GTP exchange activity of KRAS [6] | cell viability [7] | cell viability [8] | cell viability [9] | anti-tumor activity in cancer cell lines [10] | phosphorylation of downstream KRAS targets [11] | myc-driven luciferase expression [12] | cellular uptake [13] | inhibition of nucleotide (mant-GTP) loading of KRAS [4]
1 | CC[C@H](C)[C@H](NC(=O)[C@]1(C)CCCC=CCCC[C@](C)(NC(=O)CNC(=O)[C@H](Cc2ccccc2)NC(=O)[C@H](Cc2ccccc2)NC(=O)[C@H](CCCNC(=N)N)NC(=O)[C@H](CCCNC(=N)N)NC(=O)CCNC(=S)Nc2ccc3c(c2)C(=O)OC32c3ccc(O)cc3Oc3cc(O)ccc32)C(=O)N[C@@H](Cc2ccc(O)cc2)C(=O)N[C@@H](CC(C)C)C(=O)N[C@@H]([C@@H](C)O)C(=O)N1)C(=O)N[C@@H](CC(C)C)C(=O)N[C@@H](CCCCN)C(=O)N[C@H](C(=O)N[C@@H](CCC(=O)O)C(=O)N[C@@H](CCC(=O)O)C(=O)NCC(=O)N[C@@H](CC(N)=O)C(N)=O)[C@@H](C)O [SAH-SOSB2, RRFFGXYLTXILKTEEGN] | does not bind KRAS | displayed no such activity | had no effect | had no effect | dose-dependent cellular uptake was observed |  |  |  |  |  |  |  |  | 
2 | CC[C@H](C)[C@H](NC(=O)CNC(=O)[C@H](Cc1ccccc1)NC(=O)[C@H](Cc1ccccc1)NC(=O)[C@H](CCCNC(=N)N)NC(=O)[C@H](CCCNC(=N)N)NC(=O)CCNC(=S)Nc1ccc2c(c1)C(=O)OC21c2ccc(O)cc2Oc2cc(O)ccc21)C(=O)N[C@@]1(C)CCCC=CCCC[C@@](C)(C(=O)N[C@@H](CC(C)C)C(=O)N[C@@H](CCCCN)C(=O)N[C@H](C(=O)N[C@@H](CCC(=O)O)C(=O)N[C@@H](CCC(=O)O)C(=O)NCC(=O)N[C@@H](CC(N)=O)C(N)=O)[C@@H](C)O)NC(=O)[C@H](CC(N)=O)NC(=O)[C@H]([C@@H](C)O)NC(=O)[C@H](CC(C)C)NC1=O [SAH-SOSC2, RRFFGIXLTNXLKTEEGN] | among the highest affinity | disrupted the association between KRAS and SOS1 protein | dose-responsively inhibited mant-GTP loading | dose-responsively inhibited mant-GTP loading | dose-dependent cellular uptake was observed | reduce the GTP exchange activity of KRAS in vitro in a dose-responsive manner | impairs the viability | impairs the viability | impairs the viability | demonstrated anti-tumor activity | dose-responsively inhibited phosphorylation | specifically inhibited myc-driven luciferase expression | cellular uptake | 
3 | RRFFGIXLTNXLRTEK(G-GMONO)GN (RRFFGI[S5]LTN[S5]LRTEK(G‑GMONO)GN; staple 7-11) [SAH-SOS(G-Gmono), SAH-SOSC2 derivative with glycine-conjugated G-monomer on a lysine side chain] |  |  |  |  |  |  |  |  |  |  |  |  |  | effectively inhibited nucleotide loading
4 | RRFFGIXLTNXLRTEKGN (RRFFGI[S5]LTN[S5]LRTEK(guanine PNA monomer)GN; staple 7-11) [SAH-SOS(Gmono), SAH-SOSC2 derivative with guanine peptide-nucleic acid monomer (Gmono) on a lysine side chain] |  |  |  |  |  |  |  |  |  |  |  |  |  | effectively inhibited nucleotide loading
